pIC50: −log10 of the molar value.
Experiments:
Assay in all cases: cells
[1] = tested on: EFM-19; assay type: functional, cell-based, Homo sapiens; settings: Homo sapiens, EFM-19;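 further: growth inhibition of human EFM-19 cells, measured in a cell viability assay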
Description: SANGER: Inhibition of human EFM-19 cell growth in a cell viability assay.

[2] = tested on: DMS-114; assay type: functional, cell-based, Homo sapiens; settings: Homo sapiens, DMS-114
[3] = tested on: RCM-1; assay type: functional, cell-based, Homo sapiens; settings: Homo sapiens, RCM-1;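 further: growth inhibition of the RCM-1 line, determined with a cell viability readout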
Description: SANGER: Inhibition of human RCM-1 cell growth in a cell viability assay.

[4] = tested on: K5; assay type: functional, cell-based, Homo sapiens; settings: Homo sapiens, K5
Description: SANGER: Inhibition of human K5 cell growth in a cell viability assay.

[5] = tested on: SW1088; assay type: functional, cell-based, Homo sapiens; settings: Homo sapiens, SW1088;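 further: growth inhibition of human SW1088 cells, read out by a cell viability assay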
Description: SANGER: Inhibition of human SW1088 cell growth in a cell viability assay.

[6] = tested on: JEG-3; assay type: functional, cell-based, Homo sapiens; settings: Homo sapiens, JEG-3;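 further: growth inhibition of human JEG-3 cells, read out with a cell viability assay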
Description: SANGER: Inhibition of human JEG-3 cell growth in a cell viability assay.

[7] = tested on: OE33; assay type: functional, cell-based, Homo sapiens; settings: Homo sapiens, OE33;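 further: growth inhibition of human OE33 cells, measured by a cell viability assay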
Description: SANGER: Inhibition of human OE33 cell growth in a cell viability assay.

[8] = tested on: MMAC-SF; assay type: functional, cell-based, Homo sapiens; settings: Homo sapiens, MMAC-SF;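 further: growth inhibition of human MMAC-SF cells, read out with a cell viability assay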
Description: SANGER: Inhibition of human MMAC-SF cell growth in a cell viability assay.

[9] = tested on: Daoy; assay type: functional, cell-based, Homo sapiens; settings: Homo sapiens, Daoy;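 further: daoy cell growth inhibition, read out as cell viability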
Description: SANGER: Inhibition of human Daoy cell growth in a cell viability assay.

[10] = tested on: HT-1080; assay type: functional, cell-based, Homo sapiens; settings: Homo sapiens, HT-1080
Description: SANGER: Inhibition of human HT-1080 cell growth in a cell viability assay.

[11] = tested on: HGC-27; assay type: functional, cell-based, Homo sapiens; settings: Homo sapiens, HGC-27;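 further: growth inhibition of human HGC-27 cells, read out in a cell viability assay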
Description: SANGER: Inhibition of human HGC-27 cell growth in a cell viability assay.

[12] = tested on: BFTC-909; assay type: functional, cell-based, Homo sapiens; settings: Homo sapiens, BFTC-909
Description: SANGER: Inhibition of human BFTC-909 cell growth in a cell viability assay.

[13] = tested on: SW48; assay type: functional, cell-based, Homo sapiens; settings: Homo sapiens, SW48;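 further: growth inhibition of SW48 cells, read out with a cell viability assay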
Description: SANGER: Inhibition of human SW48 cell growth in a cell viability assay.

[14] = tested on: MKN-45; assay type: functional, cell-based, Homo sapiens; settings: Homo sapiens, MKN-45;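 further: growth inhibition of human MKN-45 cells, measured with a cell viability assay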
Description: SANGER: Inhibition of human MKN45 cell growth in a cell viability assay.

[15] = tested on: ESS-1; assay type: functional, cell-based, Homo sapiens; settings: Homo sapiens, ESS-1;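 further: growth inhibition of human ESS-1 cells, read out by a cell viability assay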
Description: SANGER: Inhibition of human ESS-1 cell growth in a cell viability assay.

[16] = tested on: ATN-1; assay type: functional, cell-based; settings: Homo sapiens;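 further: growth inhibition of human ATN-1 cells, read out with a cell viability assay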
Description: SANGER: Inhibition of human ATN-1 cell growth in a cell viability assay.

[17] = tested on: NCI-H1304; assay type: functional, cell-based; settings: Homo sapiens;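 further: growth inhibition of the cancer cell line, measured in a cell viability assay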
Description: SANGER: Inhibition of human NCI-H1304 cell growth in a cell viability assay.

[18] = tested on: NCI-H446; assay type: functional, cell-based; settings: Homo sapiens;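 further: growth inhibition of NCI-H446 cells determined by a cell viability assay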
Description: SANGER: Inhibition of human NCI-H446 cell growth in a cell viability assay.

[19] = tested on: RERF-LC-MS; assay type: functional, cell-based, Homo sapiens; settings: Homo sapiens, RERF-LC-MS;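 further: growth inhibition of human RERF-LC-MS cells, read out by a cell viability assay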
Description: SANGER: Inhibition of human RERF-LC-MS cell growth in a cell viability assay.

[20] = tested on: MDA-MB-361; assay type: functional, cell-based, Homo sapiens; settings: Homo sapiens, MDA-MB-361
[21] = tested on: SNB-75; assay type: functional, cell-based, Homo sapiens; settings: Homo sapiens, SNB-75;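 further: cell viability assay measuring growth inhibition of human SNB-75 cells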
Description: SANGER: Inhibition of human SNB75 cell growth in a cell viability assay.

[22] = tested on: RD; assay type: functional, cell-based, Homo sapiens; settings: Homo sapiens, RD
Description: SANGER: Inhibition of human RD cell growth in a cell viability assay.

[23] = tested on: KP-4; assay type: functional, cell-based, Homo sapiens; settings: Homo sapiens, KP-4;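 further: human KP-4 cells, with growth inhibition read out through a cell viability assay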
Description: SANGER: Inhibition of human KP-4 cell growth in a cell viability assay.

[24] = tested on: EGI-1; assay type: functional, cell-based, Homo sapiens; settings: Homo sapiens, EGI-1;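 further: cell viability readout used to gauge growth inhibition of EGI-1 cells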
Description: SANGER: Inhibition of human EGI-1 cell growth in a cell viability assay.

[25] = tested on: MEL-HO; assay type: functional, cell-based, Homo sapiens; settings: Homo sapiens, MEL-HO
Description: SANGER: Inhibition of human MEL-HO cell growth in a cell viability assay.

[26] = tested on: L-428; assay type: functional, cell-based; settings: Homo sapiens
Description: SANGER: Inhibition of human L-428 cell growth in a cell viability assay.

[27] = tested on: DBTRG-05MG; assay type: functional, cell-based, Homo sapiens; settings: Homo sapiens, DBTRG-05MG;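 further: cell viability assay measuring growth inhibition of human DBTRG-05MG cells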
Description: SANGER: Inhibition of human DBTRG-05MG cell growth in a cell viability assay.

[28] = tested on: KYSE-140; assay type: functional, cell-based, Homo sapiens; settings: Homo sapiens, KYSE-140;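 further: cell viability assay measuring growth inhibition in human KYSE-140 cells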
Description: SANGER: Inhibition of human KYSE-140 cell growth in a cell viability assay.

[29] = tested on: KG-1; assay type: functional, cell-based; settings: Homo sapiens;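 further: growth inhibition of KG-1 cells, read out by a cell viability assay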
Description: SANGER: Inhibition of human KG-1 cell growth in a cell viability assay.

[30] = tested on: LB373-MEL-D; assay type: functional, cell-based, Homo sapiens; settings: Homo sapiens, LB373-MEL-D;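 further: growth inhibition of the cell line, read out in a cell viability assay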
Description: SANGER: Inhibition of human LB373-MEL-D cell growth in a cell viability assay.

[31] = tested on: NCI-H1993; assay type: functional, cell-based, Homo sapiens; settings: Homo sapiens, NCI-H1993;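 further: growth inhibition of the cancer cell line, assessed with a cell viability assay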
Description: SANGER: Inhibition of human NCI-H1993 cell growth in a cell viability assay.

[32] = tested on: MFH-ino; assay type: functional, cell-based; settings: Homo sapiens;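 further: growth inhibition of human MFH-ino cells, read out by a cell viability assay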
Description: SANGER: Inhibition of human MFH-ino cell growth in a cell viability assay.

[33] = tested on: NCI-H2405; assay type: functional, cell-based, Homo sapiens; settings: Homo sapiens, NCI-H2405;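 further: growth inhibition of the human cell line, read out with a cell viability assay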
Description: SANGER: Inhibition of human NCI-H2405 cell growth in a cell viability assay.

[34] = tested on: LB2241-RCC; assay type: functional, cell-based, Homo sapiens; settings: Homo sapiens, LB2241-RCC;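 further: cell viability assay measuring how strongly the cultured human renal carcinoma line is prevented from growing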
Description: SANGER: Inhibition of human LB2241-RCC cell growth in a cell viability assay.

[35] = tested on: C32; assay type: functional, cell-based, Homo sapiens; settings: Homo sapiens, C32;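 further: cell viability assay, with IC50 reflecting inhibition of C32 cell growth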
Description: SANGER: Inhibition of human C32 cell growth in a cell viability assay.

[36] = tested on: EKVX; assay type: functional, cell-based, Homo sapiens; settings: Homo sapiens, EKVX;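 further: growth inhibition of human EKVX cells, read out with a cell viability assay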
Description: SANGER: Inhibition of human EKVX cell growth in a cell viability assay.

[37] = tested on: D-392MG; assay type: functional, cell-based, Homo sapiens; settings: Homo sapiens, D-392MG
[38] = tested on: SW13; assay type: functional, cell-based, Homo sapiens; settings: Homo sapiens, SW13;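 further: IC50 is inhibition of SW13 cell growth, read out with a cell viability assay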
Description: SANGER: Inhibition of human SW13 cell growth in a cell viability assay.

[39] = tested on: IA-LM; assay type: functional, cell-based, Homo sapiens; settings: Homo sapiens, IA-LM;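 further: cell viability assay measuring growth inhibition of human IA-LM cells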
Description: SANGER: Inhibition of human IA-LM cell growth in a cell viability assay.

[40] = tested on: RCC10RGB; assay type: functional, cell-based, Homo sapiens; settings: Homo sapiens, RCC10RGB;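 further: growth inhibition of human RCC10RGB cells, read out by a cell viability assay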
Description: SANGER: Inhibition of human RCC10RGB cell growth in a cell viability assay.

[41] = tested on: CW-2; assay type: functional, cell-based, Homo sapiens; settings: Homo sapiens, CW-2;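 further: growth inhibition of CW-2 cells, read out by a cell viability assay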
Description: SANGER: Inhibition of human CW-2 cell growth in a cell viability assay.

[42] = tested on: LS-411N; assay type: functional, cell-based, Homo sapiens; settings: Homo sapiens, LS-411N
[43] = tested on: KM-H2; assay type: functional, cell-based; settings: Homo sapiens;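 further: growth inhibition of KM-H2 cells, read out by a cell viability assay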
Description: SANGER: Inhibition of human KM-H2 cell growth in a cell viability assay.

[44] = tested on: IST-MES1; assay type: functional, cell-based, Homo sapiens; settings: Homo sapiens, IST-MES1;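 further: growth inhibition of IST-MES1 cells, measured with a cell viability assay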
Description: SANGER: Inhibition of human IST-MES1 cell growth in a cell viability assay.

[45] = tested on: NUGC-3; assay type: functional, cell-based, Homo sapiens; settings: Homo sapiens, NUGC-3;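 further: growth inhibition of human NUGC-3 cells, read out with a cell viability assay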
Description: SANGER: Inhibition of human NUGC-3 cell growth in a cell viability assay.

[46] = tested on: Mo; assay type: functional, cell-based; settings: Homo sapiens
Description: SANGER: Inhibition of human Mo-T cell growth in a cell viability assay.

[47] = tested on: NKM-1; assay type: functional, cell-based; settings: Homo sapiens;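 further: growth inhibition of NKM-1 cells, read out with a cell viability assay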
Description: SANGER: Inhibition of human NKM-1 cell growth in a cell viability assay.

[48] = tested on: HLE; assay type: functional, cell-based, Homo sapiens; settings: Homo sapiens, HLE;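 further: growth inhibition of human HLE cells, read out by a cell viability assay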
Description: SANGER: Inhibition of human HLE cell growth in a cell viability assay.

[49] = tested on: HCC1937; assay type: functional, cell-based, Homo sapiens; settings: Homo sapiens, HCC1937;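 further: growth inhibition measured with a cell viability read-out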
Description: SANGER: Inhibition of human HCC1937 cell growth in a cell viability assay.

[50] = tested on: DK-MG; assay type: functional, cell-based, Homo sapiens; settings: Homo sapiens, DK-MG;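 further: growth inhibition of DK-MG cells, read out with a cell viability assay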
Description: SANGER: Inhibition of human DK-MG cell growth in a cell viability assay.

Q: With `O=C(NOCC1CC1)c1ccc(F)c(F)c1Nc1ccc(I)cc1Cl` [CI-1040] as the compound, how does the pIC50 [1] read?
A: < 5.00

Q: What about the pIC50 [2] of the same compound?
A: < 5.00

Q: What about the pIC50 [3] of the same compound?
A: 5.91

Q: What about the pIC50 [4] of the same compound?
A: 6.37

Q: What about the pIC50 [5] of the same compound?
A: 5.16

Q: And the pIC50 [6]?
A: < 5.00

Q: What about the pIC50 [7] of the same compound?
A: < 5.00

Q: And the pIC50 [8]?
A: 6.96

Q: And the pIC50 [9]?
A: < 5.00

Q: And the pIC50 [10]?
A: 5.52

Q: And the pIC50 [11]?
A: < 5.00

Q: And the pIC50 [12]?
A: < 5.00

Q: And the pIC50 [13]?
A: 5.16

Q: What about the pIC50 [14] of the same compound?
A: 5.02

Q: What about the pIC50 [15] of the same compound?
A: < 5.00

Q: What about the pIC50 [16] of the same compound?
A: < 5.00

Q: What about the pIC50 [17] of the same compound?
A: 5.21

Q: And the pIC50 [18]?
A: < 5.00

Q: And the pIC50 [19]?
A: 5.25

Q: And the pIC50 [20]?
A: < 5.00

Q: What about the pIC50 [21] of the same compound?
A: < 5.00

Q: What about the pIC50 [22] of the same compound?
A: 5.61

Q: And the pIC50 ([23]; read-out: IC50)?
A: < 5.00

Q: What about the pIC50 [24] of the same compound?
A: 5.44

Q: And the pIC50 [25]?
A: 6.56

Q: And the pIC50 [26]?
A: < 5.00

Q: And the pIC50 [27]?
A: 5.06

Q: What about the pIC50 [28] of the same compound?
A: 5.22

Q: What about the pIC50 [29] of the same compound?
A: 6.51

Q: What about the pIC50 [30] of the same compound?
A: < 5.00

Q: And the pIC50 [31]?
A: < 5.00

Q: What about the pIC50 [32] of the same compound?
A: < 5.00

Q: What about the pIC50 [33] of the same compound?
A: < 5.00

Q: And the pIC50 [34]?
A: 5.54

Q: What about the pIC50 [35] of the same compound?
A: 6.72

Q: What about the pIC50 [36] of the same compound?
A: < 5.00

Q: What about the pIC50 [37] of the same compound?
A: < 5.00

Q: And the pIC50 [38]?
A: < 5.00

Q: And the pIC50 [39]?
A: < 5.00

Q: What about the pIC50 [40] of the same compound?
A: < 5.00

Q: And the pIC50 [41]?
A: < 5.00

Q: What about the pIC50 [42] of the same compound?
A: 5.85

Q: And the pIC50 [43]?
A: < 5.00

Q: What about the pIC50 [44] of the same compound?
A: < 5.00

Q: And the pIC50 [45]?
A: 5.26

Q: What about the pIC50 [46] of the same compound?
A: < 5.00

Q: What about the pIC50 [47] of the same compound?
A: < 5.00

Q: What about the pIC50 [48] of the same compound?
A: < 5.00

Q: And the pIC50 [49]?
A: 5.03

Q: And the pIC50 [50]?
A: 5.04

Q: `CC(=O)O[C@@]12CO[C@@H]1C[C@H](O)[C@@]1(C)C(=O)[C@H](O)C3=C(C)[C@@H](OC(=O)[C@H](O)[C@@H](NC(=O)OC(C)(C)C)c4ccccc4)C[C@@](O)([C@@H](OC(=O)c4ccccc4)[C@H]21)C3(C)C` [DOCETAXEL] was tested. Which pIC50 [1] did it give?
A: 8.67

Q: And the pIC50 [2]?
A: 8.16

Q: What about the pIC50 [3] of the same compound?
A: < 8.00

Q: What about the pIC50 [4] of the same compound?
A: 9.11

Q: What about the pIC50 [5] of the same compound?
A: 8.53

Q: What about the pIC50 [6] of the same compound?
A: 8.55

Q: What about the pIC50 [7] of the same compound?
A: < 8.00

Q: And the pIC50 [8]?
A: 8.23

Q: And the pIC50 [9]?
A: 9.15

Q: What about the pIC50 [10] of the same compound?
A: 9.30

Q: And the pIC50 [11]?
A: 9.33

Q: And the pIC50 [12]?
A: 8.65

Q: What about the pIC50 [13] of the same compound?
A: 9.00

Q: What about the pIC50 [14] of the same compound?
A: 8.34

Q: What about the pIC50 [15] of the same compound?
A: 9.75

Q: What about the pIC50 [16] of the same compound?
A: < 8.00

Q: What about the pIC50 [17] of the same compound?
A: < 8.00

Q: What about the pIC50 [18] of the same compound?
A: 8.61

Q: What about the pIC50 [19] of the same compound?
A: 8.95

Q: And the pIC50 [20]?
A: 8.55

Q: And the pIC50 [21]?
A: 8.42

Q: What about the pIC50 [22] of the same compound?
A: 8.40

Q: And the pIC50 [23]?
A: 8.81

Q: And the pIC50 [24]?
A: 8.44

Q: What about the pIC50 [25] of the same compound?
A: < 8.00

Q: What about the pIC50 [26] of the same compound?
A: < 8.00

Q: What about the pIC50 [27] of the same compound?
A: 8.04

Q: And the pIC50 [28]?
A: 9.03

Q: What about the pIC50 [29] of the same compound?
A: < 8.00

Q: And the pIC50 [30]?
A: < 8.00

Q: What about the pIC50 [31] of the same compound?
A: < 8.00

Q: And the pIC50 [32]?
A: < 8.00

Q: And the pIC50 [33]?
A: < 8.00

Q: And the pIC50 [34]?
A: 8.27

Q: What about the pIC50 [35] of the same compound?
A: < 8.00

Q: And the pIC50 [36]?
A: < 8.00

Q: What about the pIC50 [37] of the same compound?
A: < 8.00

Q: What about the pIC50 [38] of the same compound?
A: 8.77

Q: And the pIC50 [39]?
A: < 8.00

Q: And the pIC50 [40]?
A: < 8.00

Q: And the pIC50 [41]?
A: < 8.00

Q: What about the pIC50 [42] of the same compound?
A: 8.50

Q: And the pIC50 [43]?
A: < 8.00

Q: What about the pIC50 [44] of the same compound?
A: 8.08

Q: And the pIC50 [45]?
A: 8.51

Q: And the pIC50 [46]?
A: < 8.00

Q: And the pIC50 [47]?
A: < 8.00

Q: What about the pIC50 [48] of the same compound?
A: 8.39

Q: What about the pIC50 [49] of the same compound?
A: < 8.00

Q: And the pIC50 [50]?
A: 8.07
